Data as given in patent publication US20260345507A1, “COMPOSITIONS AND METHODS FOR DELIVERY OF RNA” (REJUVENATION TECHNOLOGIES, INC., priority 2022, published 2026).

Legend:
[1] = Pharmacokinetics of 5-lipid LNP (DOTAP by LC-MS/MS); format: in vivo, mouse; set-up: Decay constant: unit not given here; details: 1.0 mg mRNA/kg; for half-life: mouse, 1 mg/kg
Experimental: Methods: LNPs were formulated using lipid molar ratios in Table 1 with mRNA encoding human telomerase. CD1 male mice were dosed at 1.0 mg mRNA/kg of body weight, and plasma and tissue were collected at time points 0 (<5 min) and 24 hours. DOTAP was measured using LC-MS/MS. mRNA was measured by qRT-PCR. “Liver Rest” is the liver sample excluding the left lobe.

P21 = experiment: Senescence marker P21 in lung alveolar cells of bleomycin-treated mice; format: in vivo, mouse; details: following bleomycin treatment
Experimental: FIGS. 3-17 and FIGS. 20-21 depict experiments involving the use of a different 5 lipid LNP composition where lung fibrosis was induced in third generation (G3) TERT knock-out (KO) mice, which have telomere lengths that are similar to those of humans. Bleomycin was administered via oropharyngeal aspiration at 2.0 U/kg. For FIGS. 13-16, an initial dose of bleomycin was administered via oropharyngeal aspiration at 0.5 U/kg one week prior to the 2.0 U/kg dose. LNPs were formulated with firefly luciferase mRNA (Ctrl) or TERT mRNA (mouse SEQ ID NO: 2, including synthetic 5′ UTR (SEQ ID NO: 3), wt mTert coding sequence (SEQ ID NO: 4) and mouse alpha-globin 3′ UTR (SEQ ID NO: 5)) (referred to as “TERT mRNA LNP” herein or “TERT” or “TERT mRNA” in the figures) and the lipids in the ratios of Table 3. The DOTAP molar ratio is 2.27 times higher in the 5 lipid LNP of Table 3. Mice were dosed at 1.5 mg/kg twice a week for two weeks beginning on day 7 post bleomycin. Some mice received bleomycin, but not LNP treatment (No LNP), and control mice received saline instead of bleomycin and LNP treatment (No Bleo). Tissues were harvested on day 24 post bleomycin. Lungs were […]. […] Telomerase activity was measured in lung tissue lysate using the telomeric repeat amplification protocol (TRAP) assay. […]

[2] = Liver Left Lobe, dosed as 5-lipid LNP of Table 1, CD1 male mice
[3] = Liver Rest (liver excluding left lobe), 5-lipid LNP of Table 1, CD1 male mice
[4] = Lung Right Lobes, 5-lipid LNP of Table 1, CD1 male mice
[5] = Plasma, 5-lipid LNP of Table 1, CD1 male mice
[6] = Spleen, 5-lipid LNP of Table 1, CD1 male mice

Compound | Decay constant [1, 2] | Decay constant [1, 3] | Decay constant ([1]; Lung Left Lobe, 5-lipid LNP of Table 1, CD1 male mice) | Decay constant [1, 4] | Decay constant [1, 5] | Decay constant [1, 6] | half-life [1, 2] | half-life [1, 3] | half-life [1, 4] | half-life [1, 5] | half-life [1, 6] | senescence (P21) (P21)
CCCCCCCC/C=C\CCCCCCCC(=O)OCC(C[N+](C)(C)C)OC(=O)CCCCCCC/C=C\CCCCCCCC (stereo not drawn) [DOTAP, 1,2-dioleoyl-3-trimethylammonium-propane] | 0.066 | 0.050 | 0.094 | 0.073 | 0.191 | 0.136 | 10.5 h | 13.8 h | 9.51 h | 3.63 h | 5.09 h | –
bleomycin | – | – | – | – | – | – | – | – | – | – | – | Increase in senescence
